Measured values from PMC3201017, “Modification of the loops in the ligand-binding site turns avidin into a steroid-binding protein” (BMC Biotechnology, 2011).
Residue numbers refer to the chain shown, from its start. Where a name gives a salt, the structure may show the parent alone.

Columns and labels:
[1] = molecular target: T1, sbAvd-2 (steroid-binding avidin mutant) (Gallus gallus, UniProt P02701, D37R/L38M/G39N/S40H/T59A/A60T/T62N); experiment: SPR competition on testosterone-BSA chip, […] inhibitor
T1 construct: gene AVD; full avidin core, homotetramer, produced in E. coli

[2] = molecular target: T2, sbAvd-1 (steroid-binding avidin mutant) (Gallus gallus, UniProt P02701, D37R/L38M/G39N/S40H); experiment: as above
T2 construct: gene AVD; full avidin core, homotetramer, produced in E. coli

[3] = molecular target: T1, sbAvd-2 (steroid-binding avidin mutant); experiment: microplate binding to immobilized HSA-conjugated progesterone
[4] = molecular target: T2, sbAvd-1 (steroid-binding avidin mutant); experiment: as above
[5] = molecular target: the molecule itself; experiment: SEC; FPLC gel-filtration, Superdex 200 10/300 GL, calibrated with a molecular-mass standard; 20 mM sodium phosphate pH 7.4, 1 M NaCl, 20 mM imidazole; 90-193 μg protein in 500 μl

T1 sequence (P02701 25-152 D37R/L38M/G39N/S40H/T59A/A60T/T62N): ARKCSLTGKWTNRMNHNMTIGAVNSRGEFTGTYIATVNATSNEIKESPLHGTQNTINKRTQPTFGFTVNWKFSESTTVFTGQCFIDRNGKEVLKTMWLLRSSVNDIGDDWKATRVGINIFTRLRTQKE

Molecule: C[C@]12CC[C@H](OS(=O)(=O)O)CC1=CC[C@@H]1[C@@H]2CC[C@]2(C)C(=O)CC[C@@H]12 [DHEAS, dehydroepiandrosterone sulfate]
- SPR competition on testosterone-BSA chip, 50 μM inhibitor [1]: The binding of sbAvd-2 to testosterone was found to be most efficiently inhibited by testosterone and DHEAS
- SPR competition on testosterone-BSA chip, 50 μM inhibitor [2]: SbAvd-1 was found to be cross-reactive with androgens highly similar to testosterone (DHEAS and androstenedione)

Molecule: CC(=O)[C@H]1CC[C@H]2[C@@H]3CCC4=CC(=O)CC[C@]4(C)[C@H]3CC[C@]12C [PRO, progesterone]
- microplate binding to immobilized HSA-conjugated progesterone [3]: these modified Avds showed clear binding to testosterone and progesterone
- microplate binding to immobilized HSA-conjugated progesterone [4]: sbAvd-1 also binds other steroid hormones, such as progesterone and DHEAS

B1: steroid-binding avidin mutant sbAvd-1 (designed binder)
chain: ARKCSLTGKWTNRMNHNMTIGAVNSRGEFTGTYITAVTATSNEIKESPLHGTQNTINKRTQPTFGFTVNWKFSESTTVFTGQCFIDRNGKEVLKTMWLLRSSVNDIGDDWKATRVGINIFTRLRTQKE
notes: chicken avidin (Avd) with the loop between beta-strands 1 and 2 (N12, D13, L14, G15, S16) changed to N12, R13, M14, N15, H16; selected by phage display from the Avd L1,2 library; source: E. coli BL21-AI, pET101/D, secreted with the OmpA signal of Bordetella avium, purified (Ni-NTA)
- stoichiometry N [5]: 4

B2: steroid-binding avidin mutant sbAvd-2 (designed binder)
chain: B1 chain with T35A, A36T, T38N
notes: selected by phage display from the sbAvd-1 L3,4 library; source: E. coli BL21-AI, pET101/D, secreted with the OmpA signal of Bordetella avium, purified (Ni-NTA)
- stoichiometry N [5]: 4
